Experiment [1] concerns the target T1, Avi-KRAS G12R (1-169) GppNHp/RAF1 RBD-3×FLAG (52-151) (Homo sapiens, UniProt P01116, G12R).
T1 construct: 50 nM Avi-KRAS G12R (1-169) GppNHp/RAF1 RBD-3×FLAG (52-151)
The experiment in a line: Disrupting RAS-effector binding HTRF assay, Raf1 RBD-KRAS G12R-GppNHp. Particulars: PPI HTRF, 50 nM Avi-KRAS G12R GppNHp, compound titration 30-0.0045 μM; read-out: Raf1 RBD-KRAS G12R-GppNHp disruption. How it is done: (§1) A protein:protein interaction (PPI) Homogeneous Time Resolved Fluorescence (HTRF) assay was used to determine the effectiveness of compounds of the present disclosure in disrupting KRAS protein and effector RAF1 binding.
(§2) The HTRF assay used the following reagents and proteins: (i) 50 nM Avi-KRAS G12D (1-169) GppNHp/RAF1 RBD-3×FLAG (52-151); (ii) 50 nM Avi-KRAS G12R (1-169) GppNHp/RAF1 RBD-3×FLAG (52-151); (iii) 50 nM Avi-KRAS G12V (1-169) GppNHp/RAF1 RBD-3×FLAG (52-151), (iv) 50 nM Avi-KRAS WT (1-169) GppNHp/RAF1 RBD-3×FLAG (52-151); and (v) 75 nM Avi-RAF1 RBD-3×FLAG. The assay buffer included: 50 mM Tris pH 7.5, 100 mM NaCl, 5 mM MgCl2, 0.1% BSA, […], 10% DMSO. The bead buffer included: 50 mM Tris pH 7.5, 0.01% o Tween 20. Assay volume of 20 μL was used in a 384 well plate-low volume format. Compound titration: 30-0.0045 μM, 3× dilution series.
(§3) The HTRF assay employed the following protocol:
(§4) Compounds were dispensed in assay plate (384-well, Grenier Bione #784075) using Echo (model 555) with dose response settings: 200 nL final volume, titration from 30 μM as a 10-point dilution series. Protein mix was prepared in assay buffer, and dispensed on plates, 10 μL per well, then incubated for 1 h at room temperature, with 700 rpm shaking. Reagents mix was prepared and dispensed on plates, 10 μL per well, then incubated for 1 h at room temperature, with 700 rpm shaking.
(§5) Plates were analyzed on an Envision plate reader using the following setting: Excitation 320 nm, Bandwidth 75 nM; Emission 615 nm, Bandwidth 85 nM, Gain 100%, Flashes 100, Lag 60 μs. Data were reported as percentage of activity, with DMSO as 100%. Data were plotted and analyzed using Prism 8.
(§6) The biochemical Raf1-KRAS G12D/G12R/G12V/WT-GppNHP disruption assay IC50 of selected compounds described herein are shown in Table 4.

Experiment [2] addresses T2, Avi-KRAS WT (1-169) GppNHp/RAF1 RBD-3×FLAG (52-151) (Homo sapiens, UniProt P01116).
T2 construct: 50 nM Avi-KRAS WT (1-169) GppNHp/RAF1 RBD-3×FLAG (52-151)
The experiment in a line: Disrupting RAS-effector binding HTRF assay, Raf1 RBD-KRAS WT-GppNHp. As to conditions: PPI HTRF, 50 nM Avi-KRAS WT GppNHp, compound titration 30-0.0045 μM; read-out: Raf1 RBD-KRAS WT-GppNHp disruption. The procedure: as §1, §2, §3, §4, §5, §6
On the technique in general: In TR-FRET formats the signal depends on donor and acceptor labels being close together.

Experiment [3] has as its system KRAS G12D protein/effector signaling in GP2d cells. The experiment in a line: Cell-based pERK HTRF assay in GP2d cell. As to conditions: 1 h, 60 min incubation. The procedure: A pERK assay (Perkin Elmer) was used to determine the effectiveness of compounds in disrupting KRAS G12D protein/effector signaling in cells.
On Day 1, cells (GP2d) were seeded into 96-well plates at 3×10^4 cells/well in 80 μL complete growth media (DMEM, 10% FBS).
(§7) On Day 2, cells were treated with compounds at 0.25% DMSO. The source plate was created with compounds diluted in media at 5-fold the final assay concentration. The compounds were run in a 9-point concentration curve starting at 1 M, with a half-log dilution between concentrations. 20 μL was transferred onto the cell plates (final volume in wells was 100 μL). Plates were harvested after 60 min incubation by aspirating media and adding kit-supplied 1× supplemented lysis buffer to all wells (50 μL per well). Plates were then placed on a plate shaker and incubated at 850 rpm for an additional 30 min.
Antibody mixture solution was prepared by diluting aliquoted d2 and Eu Cryptate antibodies 1:20 in kit supplied detection buffer, and mixing the diluted antibodies solutions (1:1 v:v). 4 μL of this solution was then added to a 384-well detection plate (Perkin Elmer; 6008230).
(§8) Samples were homogenized by pipetting up and down and then transferred (16 μL of cell lysates) from the 96-well cell culture plate to two wells of the HTRF 384-well detection plate containing the antibody solution. Plates were centrifuged (524 g for 1 min) and allowed to incubate between 4 and 24 h at room temperature. Maximum signal was reached after 4 h incubation time and remained stable over a period of 24 hours. Therefore, readings could be made between 4 and 24 h of incubation. Plates were centrifuged again (524 g for 1 min), then analyzed on the EnVision plate reader using the following settings: Excitation 320 nm, Bandwidth 75 nm; Emission 615 nm, Bandwidth 85 nm; Gain 100%; Flashes 100; Lag 60 μs.

Experiment [4] deals with KRAS G12V protein/effector signaling in SW620 cells. The experiment in a line: Cell-based pERK HTRF assay in SW620 cell. Particulars: Homo sapiens, SW-620, 1 h incubation. How it is done: pERK assay (Perkin Elmer) was used to determine the effectiveness of compounds in disrupting KRAS G12V protein/effector signaling in cells.
On Day 1, cells (SW620) were seeded into 96-well plates at 3×10^4 cells/well in 80 μL complete growth media (DMEM, 10% FBS).
as §7, with “10 μM,” for “1 M,”, “1 h” for “60 min”
Antibody mixture solution was prepared by diluting aliquoted d2 and Eu Cryptate antibodies 1:20 in kit supplied detection buffer, and mixing the diluted antibodies solutions (1:1 v:v). Four μL of this solution was then added to a 384-well detection plate (Perkin Elmer; 6008230).
as §8

Experiment [5] addresses T3, Avi-KRAS G12D (1-169) GppNHp/RAF1 RBD-3×FLAG (52-151) (Homo sapiens, UniProt P01116, G12D).
T3 construct: 50 nM Avi-KRAS G12D (1-169) GppNHp/RAF1 RBD-3×FLAG (52-151)
In words: Disrupting RAS-effector binding HTRF assay, Raf1 RBD-KRAS G12D-GppNHp. As to conditions: PPI HTRF, 50 nM Avi-KRAS G12D GppNHp, compound titration 30-0.0045 μM; read-out: Raf1 RBD-KRAS G12D-GppNHp disruption. The procedure: as §1, §2, §3, §4, §5, §6

Experiment [6] addresses T4, Avi-KRAS G12V (1-169) GppNHp/RAF1 RBD-3×FLAG (52-151) (Homo sapiens, UniProt P01116, G12V).
T4 construct: 50 nM Avi-KRAS G12V (1-169) GppNHp/RAF1 RBD-3×FLAG (52-151)
The experiment in a line: Disrupting RAS-effector binding HTRF assay, Raf1 RBD-KRAS G12V-GppNHp. Particulars: PPI HTRF, 50 nM Avi-KRAS G12V GppNHp, compound titration 30-0.0045 μM; read-out: Raf1 RBD-KRAS G12V-GppNHp disruption. How it is done: as §1, §2, §3, §4, §5, §6

Drawing on patent publication US20260035376A1, “COMPOSITIONS AND METHODS FOR INHIBITION OF RAS” (TheRas, Inc., priority 2022, published 2026), this text covers IC50 for 17 molecules.

Each structure is given as a SMILES string. pIC50: −log10 of the molar value.

T1 sequence (P01116 1-169 isoform P01116-2 G12R limits assumed): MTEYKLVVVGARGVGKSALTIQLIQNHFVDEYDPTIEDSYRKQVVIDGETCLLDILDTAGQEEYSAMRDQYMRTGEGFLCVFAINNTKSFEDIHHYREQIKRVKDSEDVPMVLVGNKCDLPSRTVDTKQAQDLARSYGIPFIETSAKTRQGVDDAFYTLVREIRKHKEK
T4 sequence (P01116 1-169 isoform P01116-2 G12V limits assumed): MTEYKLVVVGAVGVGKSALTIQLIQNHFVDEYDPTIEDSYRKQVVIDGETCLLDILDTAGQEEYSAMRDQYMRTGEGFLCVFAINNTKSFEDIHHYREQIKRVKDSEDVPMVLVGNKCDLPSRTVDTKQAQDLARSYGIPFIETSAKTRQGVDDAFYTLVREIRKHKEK
T2 sequence (P01116 1-169 isoform P01116-2 limits assumed): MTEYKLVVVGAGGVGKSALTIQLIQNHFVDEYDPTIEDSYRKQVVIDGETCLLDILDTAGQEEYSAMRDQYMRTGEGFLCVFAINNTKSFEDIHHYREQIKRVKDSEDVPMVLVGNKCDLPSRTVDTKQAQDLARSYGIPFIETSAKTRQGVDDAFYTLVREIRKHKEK
T3 sequence (P01116 1-169 isoform P01116-2 G12D limits assumed): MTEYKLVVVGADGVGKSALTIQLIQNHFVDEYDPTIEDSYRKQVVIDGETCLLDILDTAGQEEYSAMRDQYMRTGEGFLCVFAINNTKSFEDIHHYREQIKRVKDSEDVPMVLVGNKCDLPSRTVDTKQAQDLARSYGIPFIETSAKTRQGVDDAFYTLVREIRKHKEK

For `CC(=O)Nc1nc(N2CC3CCC(C2)N3)c2cc(C(F)(F)F)c(-c3ccc(F)c4sc(N)c(C#N)c34)c(F)c2n1` [Compound 28], the pIC50 in experiment [1] is under 5.00; in experiment [2], under 5.00; in experiment [3], at least 7.00; in experiment [4], under 5.00; in experiment [5], 5.00 to 6.00; in experiment [6], under 5.00.

Take `N#Cc1c(N)sc2c(F)ccc(-c3c(C(F)(F)F)cc4c(N5CC6CCC(C5)N6)nc(OC[C@H](O)CO)nc4c3F)c12` [Compound 29]: the pIC50 in experiment [1] was 5.00 to 6.00; in experiment [2], 5.00 to 6.00; in experiment [3], at least 7.00; in experiment [4], 5.00 to 6.00; in experiment [5] it was 6.00 to 7.00; in experiment [6], 5.00 to 6.00.

`N#Cc1c(N)sc2c(F)ccc(-c3c(C(F)(F)F)cc4c(N5CC6CCC(C5)N6)nc(OCC(CO)CO)nc4c3F)c12` [Compound 30]: the pIC50 in experiment [1] was 5.00 to 6.00; in experiment [2] it was 6.00 to 7.00; in experiment [3] it was at least 7.00; in experiment [4], under 5.00; in experiment [5], 6.00 to 7.00; in experiment [6], 5.00 to 6.00.

For `N#Cc1c(N)sc2c(F)ccc(-c3c(C(F)(F)F)cc4c(N5CC6CCC(C5)N6)nc(OCCCO)nc4c3F)c12` [Compound 31], the pIC50 in experiment [1] was under 5.00; in experiment [2], 5.00 to 6.00; in experiment [3], at least 7.00; in experiment [4], under 5.00; in experiment [5] it was 6.00 to 7.00; in experiment [6], under 5.00.

Regarding `N#Cc1c(N)sc2c(F)ccc(-c3c(C(F)(F)F)cc4c(N5CC6CCC(C5)N6)nc(OCCO)nc4c3F)c12` [Compound 32], the pIC50 in experiment [1] was under 5.00; in experiment [2] it was 5.00 to 6.00; in experiment [3], at least 7.00; in experiment [4] it was under 5.00; in experiment [5] it was 6.00 to 7.00; in experiment [6] it was under 5.00.

In the case of `N#Cc1c(N)sc2c(F)ccc(-c3c(C(F)(F)F)cc4c(N5CC6CCC(C5)N6)nc(OC[C@@H]5CC(=O)N5)nc4c3F)c12` [Compound 39], the pIC50 was under 5.00 in experiment [1]; 5.00 to 6.00 in experiment [2]; 6.00 to 7.00 in experiment [3]; 5.00 to 6.00 in experiment [5]; under 5.00 in experiment [6].

For `CN(c1ncnc2c(F)c(-c3ccc(F)c4sc(N)c(C#N)c34)c(C(F)(F)F)cc12)[C@@H]1CCNC1` [Compound 58], the pIC50 in experiment [1] is under 5.00; in experiment [2], under 5.00; in experiment [3], 6.00 to 7.00; in experiment [5] it was 5.00 to 6.00; in experiment [6], under 5.00.

In the case of `COc1nc(N(C)[C@@H]2CCNC2)c2cc(C(F)(F)F)c(-c3ccc(F)c4sc(N)c(C#N)c34)c(F)c2n1` [Compound 59], the pIC50 in experiment [1] is under 5.00; in experiment [2], under 5.00; in experiment [3], 6.00 to 7.00; in experiment [5], 5.00 to 6.00; in experiment [6], under 5.00.

For `COc1nc(N2C[C@@H](C)NC[C@@H]2C)c2cc(C(F)(F)F)c(-c3ccc(F)c4sc(N)c(C#N)c34)c(F)c2n1` [Compound 60], the pIC50 in experiment [1] is under 5.00; in experiment [2] it was under 5.00; in experiment [3], under 6.00; in experiment [5], under 5.00; in experiment [6], under 5.00.

In the case of `C[C@@H]1CN(c2ncnc3c(F)c(-c4ccc(F)c5sc(N)c(C#N)c45)c(C(F)(F)F)cc23)[C@@H](C)CN1` [Compound 64], the pIC50 in experiment [1] was under 5.00; in experiment [2], under 5.00; in experiment [3] it was at least 7.00; in experiment [5], 5.00 to 6.00; in experiment [6], under 5.00.

As to `CO[C@H](C)COc1nc(N2CC3CCC(C2)N3)c2cc(C(F)(F)F)c(-c3ccc(F)c4sc(N)c(C#N)c34)c(F)c2n1` [Compound 66], the figures for the pIC50 in experiment [3] and in experiment [4] were at least 7.00 and under 5.00, respectively.

On to `COC[C@@H](C)Oc1nc(N2CC3CCC(C2)N3)c2cc(C(F)(F)F)c(-c3ccc(F)c4sc(N)c(C#N)c34)c(F)c2n1` [Compound 67], for which the pIC50 in experiment [3] is at least 7.00; in experiment [4], under 5.00.

Consider `N#Cc1c(N)sc2c(F)ccc(-c3c(C(F)(F)F)cc4c(N5CC6CCC(C5)N6)nc(O[C@@H]5CCOC5)nc4c3F)c12` [Compound 68], for which the pIC50 was at least 7.00 in experiment [3] and under 5.00 in experiment [4].

As to `N#Cc1c(N)sc2c(F)ccc(-c3c(C(F)(F)F)cc4c(N5CC6CCC(C5)N6)nc(O[C@H]5CCOC5)nc4c3F)c12` [Compound 69], the pIC50 in experiment [3] is at least 7.00; in experiment [4] it was under 5.00.

As to `N#Cc1c(N)sc2c(F)ccc(-c3c(C(F)(F)F)cc4c(N5CC6CCC(C5)N6)nc(OC5CCOCC5)nc4c3F)c12` [Compound 70], the pIC50 in experiment [3] is at least 7.00; in experiment [4], under 5.00.

Regarding `COC[C@H](C)Oc1nc(N2CC3CCC(C2)N3)c2cc(C(F)(F)F)c(-c3ccc(F)c4sc(N)c(C#N)c34)c(F)c2n1` [Compound 71], the figures for the pIC50 in experiment [3] and in experiment [4] were at least 7.00 and under 5.00, respectively.

As to `CO[C@@H](C)COc1nc(N2CC3CCC(C2)N3)c2cc(C(F)(F)F)c(-c3ccc(F)c4sc(N)c(C#N)c34)c(F)c2n1` [Compound 72], the results for the pIC50 in experiment [3] and in experiment [4] were at least 7.00 and under 5.00, respectively.
